Source: patent US20110053934A1, “COMPOUNDS AND METHODS OF TREATMENT” (GLAXOSMITHKLINE LLC, priority 2007, published 2011)
Where two headings read alike, the source gives them in different places.

What was measured:
[1] = biological target: T1, ret kinase (intracellular portion of ret, amino acids 713-1072 of the short isoform) (Homo sapiens, UniProt P07949); experiment: Ret kinase enzyme assay; format: biochemical
T1 sequence (P07949 713-1072 isoform P07949-2): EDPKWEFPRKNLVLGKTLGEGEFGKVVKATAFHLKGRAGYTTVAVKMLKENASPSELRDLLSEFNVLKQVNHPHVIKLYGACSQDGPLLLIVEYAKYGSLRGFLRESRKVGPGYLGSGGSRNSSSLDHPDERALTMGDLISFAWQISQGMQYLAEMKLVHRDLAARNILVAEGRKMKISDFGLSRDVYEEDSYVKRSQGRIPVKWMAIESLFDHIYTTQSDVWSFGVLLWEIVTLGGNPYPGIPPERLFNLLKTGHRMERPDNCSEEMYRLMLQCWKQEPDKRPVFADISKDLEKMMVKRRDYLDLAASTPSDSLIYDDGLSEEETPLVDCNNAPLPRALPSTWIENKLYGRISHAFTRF
Description: The ret kinase assay used the intracellular portion of ret (amino acids 713-1072 of the short isoform) produced in SF9 insect cells and purified on a nickel column. The assay was performed in a 45 μL volume with increasing concentrations of tyrosine kinase inhibitor (TKI) in triplicate in a 96-well plate format as follows: • 4.5 μL 500 mM Morpholinopropanesulfonic acid, pH 7.4 • 4.5 μL 100 μM adenosine triphosphate • 4.5 μL 250 mM MgCl2 • 1.0 μL γ-ATP^33 (1 microCi)(3000 Ci/mMol) • 2.04 (5 mg/ml) poly Glutamic acid-Tyrosine (Sigma (P-0275)) • 234H20 • 1.04 recombinant ret (100 ng) • 4.5 μL 10× Tyrosine kinase inhibitor
The components were incubated in triplicate for 30 minutes at room temperature within a 96-well plate in triplicate. The reaction was stopped by adding 45 μL 0.5% H3PO4 to each well. 75 μL of the reaction mixture was spotted onto phosphocellulose paper (Millipore, cat #MAPHN0B50) and was washed 3 times with 2004 0.5% H3PO4. Each phosphocellulase filter was transferred into a separate scintillation vial, 1 ml cytoscint fluid was added, and the sample counted on a Packard 1900TR liquid scintillation analyzer for 1 minute.
Concentrations of Example 1 tested in the ret enzyme kinase assay to determine the IC50 were 0, 0.5, 1, 5, 10, 50, 100, and 250 nM.

[2] = biological target: c-src (Homo sapiens, UniProt P12931); experiment: c-src kinase inhibition; format: biochemical; details: read-out: c-src, range of activity, pIC50 values (converted)
Sequence of c-src (P12931 whole entry, species assumed): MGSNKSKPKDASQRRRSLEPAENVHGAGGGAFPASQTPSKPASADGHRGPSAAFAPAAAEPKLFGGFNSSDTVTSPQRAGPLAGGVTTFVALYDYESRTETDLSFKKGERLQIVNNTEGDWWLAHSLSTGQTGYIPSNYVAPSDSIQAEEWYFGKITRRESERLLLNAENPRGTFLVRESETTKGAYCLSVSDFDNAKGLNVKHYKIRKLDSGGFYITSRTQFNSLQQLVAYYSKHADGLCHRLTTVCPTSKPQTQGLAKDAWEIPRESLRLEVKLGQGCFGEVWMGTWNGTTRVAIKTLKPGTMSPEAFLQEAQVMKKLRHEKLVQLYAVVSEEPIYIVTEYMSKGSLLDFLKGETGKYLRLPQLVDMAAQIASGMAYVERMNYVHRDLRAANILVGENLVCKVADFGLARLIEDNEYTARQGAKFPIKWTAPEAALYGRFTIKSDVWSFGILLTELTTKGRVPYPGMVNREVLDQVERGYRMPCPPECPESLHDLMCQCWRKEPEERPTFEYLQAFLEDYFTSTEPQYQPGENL

[3] = biological target: VEFGR2 (Homo sapiens, UniProt P35968); experiment: VEFGR2 kinase inhibition; format: biochemical; details: read-out: VEFGR2, range of activity, pIC50 values (converted)
Sequence of VEFGR2 (P35968 20-1356): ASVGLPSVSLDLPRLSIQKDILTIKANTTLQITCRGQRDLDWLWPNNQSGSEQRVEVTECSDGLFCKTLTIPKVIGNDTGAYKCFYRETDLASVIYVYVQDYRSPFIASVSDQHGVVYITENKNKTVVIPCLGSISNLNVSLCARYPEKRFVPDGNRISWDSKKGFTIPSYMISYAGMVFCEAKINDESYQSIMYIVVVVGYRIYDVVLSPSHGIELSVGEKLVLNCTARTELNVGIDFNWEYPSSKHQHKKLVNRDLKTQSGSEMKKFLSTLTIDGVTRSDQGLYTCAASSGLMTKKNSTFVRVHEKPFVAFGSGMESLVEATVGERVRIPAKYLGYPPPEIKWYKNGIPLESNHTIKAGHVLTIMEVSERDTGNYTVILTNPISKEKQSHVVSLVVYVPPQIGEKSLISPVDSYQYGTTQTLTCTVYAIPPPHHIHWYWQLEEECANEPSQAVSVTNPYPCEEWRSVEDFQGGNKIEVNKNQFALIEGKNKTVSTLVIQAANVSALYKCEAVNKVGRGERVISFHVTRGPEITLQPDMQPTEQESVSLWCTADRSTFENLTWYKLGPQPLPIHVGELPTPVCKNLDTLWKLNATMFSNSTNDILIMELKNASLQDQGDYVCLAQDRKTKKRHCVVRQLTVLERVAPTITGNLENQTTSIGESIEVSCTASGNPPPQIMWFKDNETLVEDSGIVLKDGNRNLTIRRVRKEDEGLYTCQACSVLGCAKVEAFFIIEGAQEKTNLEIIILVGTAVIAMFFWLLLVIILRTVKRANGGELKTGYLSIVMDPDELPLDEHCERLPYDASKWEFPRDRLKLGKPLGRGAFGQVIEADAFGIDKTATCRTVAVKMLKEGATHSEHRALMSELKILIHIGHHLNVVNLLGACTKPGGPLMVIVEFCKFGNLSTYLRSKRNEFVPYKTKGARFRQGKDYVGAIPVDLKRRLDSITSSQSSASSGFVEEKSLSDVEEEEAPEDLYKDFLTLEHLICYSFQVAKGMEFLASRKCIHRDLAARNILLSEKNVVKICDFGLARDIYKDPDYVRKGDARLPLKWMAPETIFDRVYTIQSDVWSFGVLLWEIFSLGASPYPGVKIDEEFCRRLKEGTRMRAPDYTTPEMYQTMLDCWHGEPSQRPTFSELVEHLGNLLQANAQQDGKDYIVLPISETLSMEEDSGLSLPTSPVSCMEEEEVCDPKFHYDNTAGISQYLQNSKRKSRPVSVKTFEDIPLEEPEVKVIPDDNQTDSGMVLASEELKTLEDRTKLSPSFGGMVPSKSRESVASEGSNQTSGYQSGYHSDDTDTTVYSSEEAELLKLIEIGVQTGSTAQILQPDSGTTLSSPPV

[4] = tested on: TT cells, a medullary thyroid cancer cell line with constitutively activated ret; experiment: MTT assay, TT cell proliferation; format: cell-based; details: Homo sapiens, 168 hours with compound
Description: The potency of the compound of the invention was tested for its ability to inhibit cell proliferation and cell viability.

[5] = ret kinase enzyme assay, read-out: Ret, range of activity, pIC50 values (converted)

| Compound | IC50 [2] [µM] | IC50 [3] [µM] | IC50 [1, 5] [µM] | IC50 [4] [µM] | IC50 [1] [µM] |
| --- | --- | --- | --- | --- | --- |
| Oc1cc(Nc2ccnc3cc(-c4cccc(CNCCN5CCOCC5)c4)ccc23)c(F)cc1Cl [Example 4, 2-chloro-4-fluoro-5-({7-[3-({[2-(4-morpholinyl)ethyl]amino}methyl)phenyl]-4-quinolinyl}amino)phenol] | < 0.01 | < 0.01 | – | – | 0.01 to 0.1 |
| CS(=O)(=O)c1ccc2nccc(Nc3cc(O)c(F)cc3Cl)c2c1 [Example 6, 4-chloro-2-fluoro-5-{[6-(methysulfonuyl)-4-quinolinyl]amino}phenol] | – | – | < 0.01 | < 1 | – |
| Cc1ccc(O)cc1Nc1ccnc2ccc(C(=O)NC(C)C)cc12 [Example 10] | – | 0.1 to 1 | 0.01 to 0.1 | – | – |
| OCc1nc(-c2ccc3c(Nc4cc(O)c(F)cc4Cl)ccnc3c2)cs1 [Example 7, 4-chloro-2-fluoro-5-({7-[2-(hydroxymethyl)-1,3-thiazol-4-yl]-4-quinolinyl}amino)phenol] | < 0.01 | – | 0.01 to 0.1 | – | – |

Continued, in another order:

| IC50 [2] [µM] | IC50 [3] [µM] | IC50 [1, 5] [µM] | IC50 [4] [µM] | Compound | IC50 [1] [µM] |
| --- | --- | --- | --- | --- | --- |
| < 0.01 | – | < 0.01 | – | Oc1cccc(Nc2ccnc3cc(-c4ccccn4)ccc23)c1 [Example 1, 3-{[7-(2-pyridinyl)-4-quinolinyl]amino}phenol] | – |
| 0.01 to 0.1 | < 0.01 | 0.01 to 0.1 | – | Oc1cc(Nc2ccnc3cc(-c4cc5ccccc5o4)ccc23)ccc1Br [Example 3, 5-{[7-(1-benzofuran-2-yl)-4-quinolinyl]amino}-2-bromophenol] | – |
